From publication PMC11247486, “Improving the In Vivo Stability of [^52Mn]Mn(II) Complexes with 18-Membered Macrocyclic Chelators for PET Imaging” (Journal of Medicinal Chemistry, 2024)
Like-named read-outs stand apart in the source and are kept apart here.

Assays:
[1] = cited from earlier work
[2] = cited from earlier work; for pMn: [Mn^2+] = [L] = 10 μM at pH = 7.4
[3] = cited from earlier work; remark: listed apart in the source
[4] = Ex vivo biodistribution after PET/CT; format: in vivo, mice
Description: [^52Mn]Mn-CHXPYAN and [^52Mn]Mn-PYAN radiocomplexes were evaluated in vivo through 90 min dynamic PET/CT imaging of heathy mice followed by an ex vivo biodistribution analysis. Similarly, [^52Mn]MnCl2 was also studied as a control.
[^52Mn]Mn-CHXPYAN and [^52Mn]Mn-PYAN were synthesized with molar specific activities of 80 and 60 MBq/μmol, respectively. 1.04 ± 0.07 MBq (28 ± 2 μCi) of the radiocomplexes in 100 μL injection doses was prepared. The mice (n = 4 per group) were anesthetized with 2.5% isoflurane in oxygen and were injected via the retroorbital sinus. For comparison purposes, 1.04 ± 0.07 MBq (28 ± 2 μCi) of [^52Mn]MnCl2, pH 7 was also injected. After injection, mice were imaged on a Sofie GNEXT PET/CT scanner for a 90 min dynamic scan (9 frames of 10 min each) followed by a 3 min CT at 80 kVp for anatomical reference. PET images were reconstructed via 3D-OSEM (Ordered Subset Expectation Maximization) algorithm (24 subsets and 3 iterations), with random, attenuation, and decay correction, and CT was reconstructed with the modified Feldkamp algorithm and analyzed using VivoQuant 4.0 (Invicro Imaging Service and Software, Boston MA) software. After imaging, mice were euthanized, and organs were collected, weighed, and counted for associated radioactivity on an automated gamma counter. Radioactivity uptake was calculated as the percent injected dose per gram of tissue (% ID/g). Following the reconstruction of the images, ROIs (heart, liver, kidneys, muscle, and bone) were hand-drawn to determine the SUVs using the VivoQuant imaging software.

[5] = mice; cited from earlier work
[6] = Mn(II) complex, 0.15 M NaCl, 25 °C
[7] = Mn(II) complex, 0.1 M Me4NCl, 25 °C
[8] = healthy mice, 1.5 h postinjection, mean ± SD, n = 4

Structure (SMILES): C1CNCCNCCNCCNCCNCCN1 [18-ane-N6, 1,4,7,10,13,16-Hexa-Azacyclo-Octadecane, reference compound]
- log K1^H ([1]; 0.2 M NaClO4, 25°C): 10.19
- log K2^H ([1]; 0.2 M NaClO4, 25°C): 9.23
- log K3^H ([1]; 0.2 M NaClO4, 25°C): 8.73
- log K4^H ([1]; 0.2 M NaClO4, 25°C): 4.09
- log K5^H ([1]; 0.2 M NaClO4, 25°C): 2
- log K6^H ([1]; 0.2 M NaClO4, 25°C): <1
- log KMnL ([2]; 0.2 M NaClO4, 25°C): 10.5
- pMn ([2]; 0.2 M NaClO4): 5.05

Structure (SMILES): O=C(O)CN1CCNCCN(CC(=O)O)CCN(CC(=O)O)CC1 [DO3A^3–, 1,4,7,10-tetraazacyclododecane-1,4,7-triacetate]
- k1 [3, 6]: 0.45 M^–1 s^–1
- k2 [3, 6]: 3.2 × 10^2 M^–2 s^–1
- kd at pH = 7.4 [3, 6]: 1.8 × 10^–8 s^–1

Structure (SMILES): O=C(O)CN1CCN(CC(=O)O)CCN(CC(=O)O)CCN(CC(=O)O)CC1 [DOTA^4–, 1,4,7,10-tetraazacyclododecane-1,4,7,10-tetraacetate]
- k0 ([3]; Mn(II) complex of the chelator, 0.1 M Me4NCl, 25 °C): 1.8 × 10^–7 s^–1
- kd at pH = 7.4 ([3]; Mn(II) complex, 0.1 M Me4NCl, 25 °C, calculated using a Zn^2+ concentration of 10^–5 M): 1.8 × 10^–7 ^a s^–1
- k1 [3, 7]: 4.0 × 10^–2 M^–1 s^–1
- k2 [3, 7]: 1.6 × 10^3 M^–2 s^–1
- k3^Zn [3, 7]: 1.5 × 10^–5 M^–1 s^–1
- log*KH [3, 7]: 4.26

Structure (SMILES): O=C(O)CN(CCN(CC(=O)O)CC(=O)O)CCN(CC(=O)O)CC(=O)O [DTPA^5–, diethylenetriamine-N,N,N′,N″,N″-pentaacetate, reference compound]
- log K1^H ([1]; 0.15 M NaCl, 25°C): 9.97
- log K2^H ([1]; 0.15 M NaCl, 25°C): 8.40
- log K3^H ([1]; 0.15 M NaCl, 25°C): 4.18
- log K4^H ([1]; 0.15 M NaCl, 25°C): 2.68
- log K5^H ([1]; 0.15 M NaCl, 25°C): 2.01
- log K6^H ([1]; 0.15 M NaCl, 25°C): 1.36
- log KMnL ([2]; 0.15 M NaCl, 25°C): 14.54
- pMn ([2]; 0.15 M NaCl): 7.95

Structure (SMILES): O=C([O-])CN(CCN(CC(=O)[O-])CC(=O)[O-])CCN(CC(=O)[O-])CC(=O)[O-].[Mn+2] [Mn-DTPA]
- time at which complex dissociation in the presence of Cu^2+ is complete (dead time of the stopped-flow technique) [3]: ≤ 2 ms

Structure (SMILES): NC(=O)CN1CCN(CC(N)=O)Cc2cccc(n2)CN(CC(N)=O)CC1 [PC3AM^H]
- k1 [3, 6]: 1.7 × 10^–2 M^–1 s^–1
- kd at pH = 7.4 [3, 6]: 4.3 × 10^–10 s^–1

Structure (SMILES): [52Mn+2].[Cl-].[Cl-] [[^52Mn]MnCl2, reference compound]
- Biodistribution, Blood [4, 8]: 0.60 ± 0.11 % ID/g
- Biodistribution, Brain [4, 8]: 0.54 ± 0.26 % ID/g
- Biodistribution, Fat [4, 8]: 1.12 ± 0.53 % ID/g
- Biodistribution, Femur [4, 8]: 2.42 ± 0.36 % ID/g
- Biodistribution, Heart [4, 8]: 12.14 ± 7.31 % ID/g
- Biodistribution, Kidney [4, 8]: 38.14 ± 6.06 % ID/g
- Biodistribution, Liver [4, 8]: 13.00 ± 6.07 % ID/g
- Biodistribution, Muscle [4, 8]: 0.25 ± 0.13 % ID/g
- Biodistribution, Skin [4, 8]: 0.31 ± 0.11 % ID/g
- Biodistribution, Spleen [4, 8]: 4.83 ± 2.04 % ID/g
- Biodistribution, Stomach [4, 8]: 4.78 ± 3.02 % ID/g
- Biodistribution, L. Intestine ([4]; mouse, in vivo, 1.5 h): 6.48 ± 1.56 % ID/g
- Biodistribution, S. Intestine ([4]; mouse, in vivo, 1.5 h): 14.23 ± 5.70 % ID/g
- uptake, heart [5]: 16.01 ± 0.1 % ID/g
- uptake, kidney [5]: 29.9 ± 9.6 % ID/g
- uptake, liver [5]: 9.6 ± 1.9 % ID/g
- uptake, pancreas [5]: 4.1 ± 1.1 % ID/g
- uptake, spleen [5]: 4.2 ± 0.6 % ID/g
